Measured values from EP0559845B1, “Use of compounds in preventing endotoxin shock” (priority 1991, dated 1992).
Entries after “also recorded” stand apart in the source; their conditions may differ.

Assays:
[1] = system: LPS-induced GTPase activity in membranes isolated from RAW 264.7 cells; test: GTPase assay: effect of compounds on LPS-stimulated GTPase activity in macrophage membranes (release of 32Pi from γ-32P-GTP); format: biochemical
Excerpt: We sought to directly evaluate the influence of LPS on possible G-protein function by examining agonist-enhanced GTPase activity, which is a hallmark of G-protein action. Moreover, because macrophages are one of the key cell types in the release of toxic mediators following an LPS challenge, we first assessed the capacity of LPS to influence GTPase activity in membranes isolated from RAW 264.7 cells, which is a highly LPS-responsive macrophage cell line. In these studies, GTPase activity was measured using a standard assay. The activity was determined using 2 µM γ-^32P-GTP in the presence of 0.1 mM ATP and 0.2 mM of the non-hydrolyzable ATP analog, AMPPNP, in order to minimize nonspecific nucleotidase activity in the membrane preparations.
The reaction is initiated by the addition of the γ-^32P-GTP and the mixture incubated at 30-37°C for 15 to 30 minutes. The reaction is terminated by the addition of 500µl of 5% trichloroacetic acid and 500µl of 0.1gm/ml acid-activated charcoal in 5% trichloroacetic acid. The samples are centrifuged at 14,000xg for 10 minutes, and a 550µl aliquot of the supernatant is removed for scintillation counting. The supernatant will contain the released ^32Pi. The extent of GTPase inhibition is measured by the decrease in the amount of ^32Pi released from γ-^32P-GTP. Appropriate controls include mixtures with one of the following omitted: (i) test compound, (ii) endotoxin, and (iii) ATP, ADP or AMPPNP.
The membranes are resuspended in 20 mM HEPES (pH 7.4), 1 mM dithiothreitol, 1 mM EDTA and 10 µg leupeptin/ml. Aliquots are stored at -70°C until assayed.

[2] = system: mice (strain C57BL/10); test: Protection of mice against lethal endotoxemia; format: in vivo; conditions: for mice survived: intravenous
Method: (§1) Eight week old mice (strain C57BL/10) were allowed to rest for at least 7 days following their arrival and were sexually segregated and housed at 5 per cage with food and water ad libitum. Intravenous injection of a GTPase inhibiting compound (lipid X dissolved in saline as described above) and/or lipopolysaccharide was achieved by the retroorbital sinus route using a 27 gauge needle. No more than 0.1 ml of fluid was injected at a time. Just prior to injection, the mice were lightly anesthetized with ether. Following the injection, mice were observed every 0.5-6 hours and the time of death was recorded. In a few experiments, mice were injected by the intraperitoneal route with solutions of lipid X and/or lipopolysaccharide similar to those described above.
The lethal dose of E. coli endotoxin was determined both for the intravenous and for the intraperitoneal challenge. The lethal dose that killed 100% of the mice (LD100) was 250 µg intravenously and 500 µg intraperi toneally. (It is important to standardize each lot of endotoxin with each lot of mice.) To determine the approximate dose of lipid X needed to protect against a lethal challenge of endotoxin, mice were pretreated with lipid X intraperitoneally 2 hours before challenge with 1500 µg of endotoxin, which is 3 times the LD100 dose. Pretreatment of mice with lipid X appeared to prolong the time to death four-fold (from about 20 hours to 80 hours).
Because both lipid X and lipopolysaccharide (LPS) were given intraperitoneally in these preliminary experiments, the possibility existed of slow or variable rates of absorption. Consequently, an intravenous challenge route was selected to test for protective efficiency. Mice were given 750 µg of lipid X from 24 hours prior to 6 hours after endotoxin challenge with 1-2 LD100 doses. Forty-one percent of mice receiving 500 µg lipid X from 6 hours prior to endotoxin challenge through 1 hour after LPS challenge survived. When a lower endotoxin challenge dose (250 µg) was used, 81% of the mice survived if treated with lipid X from 1 hour prior to through 4 hours post LPS challenge. […] Perhaps this is due to the fact that those animals were anesthetized twice in a short period and received the toxic endotoxin challenge before receiving lipid X. The reversal of the lethal toxicity of endotoxin at times as late as 4 hours after endotoxin challenge is especially striking. […] By 4 hours after injection of the 250 µg of intravenous lipopolysaccharide, the mice had stopped normal behavior, i.e. nesting had stopped, decreased spontaneous activity occurred, and the animals were shaking.

[3] = system: C57BL/10 mice; test: Toxicity of lipid X in mice; format: in vivo
Method: as §1
To test for the toxicity of lipid X in mice, C57BL/10 mice were challenged with 750, 2000 or 5000 µg of lipid X intraperitoneally (12 mice) or with 750, 1500 or 3000 µg intravenously (7 mice). […] Consequently, lipid X appeared to be nontoxic in mice, as in sheep.

## CCCCCCCCCCC[C@@H](O)CC(=O)N[C@H]1[C@@H](OP(=O)(O)O)O[C@H](CO)[C@@H](O)[C@@H]1OC(=O)C[C@H](O)CCCCCCCCCCC [lipid X]
[1]
  inhibition of LPS-stimulated GTPase activity: dose-dependent inhibition; also recorded: dose-dependently inhibiting
[1]; LPS 300 µg/ml or 1 mg/ml
  half-maximal inhibition of LPS-enhanced GTPase activity: 23 to 1 molar ratio of lipid X to LPS
[2]; endotoxin challenge 250 µg, lipid X from 1 hour prior through 4 hours post LPS challenge
  mice survived: 81%
[2]; printed '500 µg lipid X', from 6 hours prior to endotoxin challenge through 1 hour after
  mice survived: Forty-one
[2]; lipid X given 6 hours after lipopolysaccharide
  prevention of lethal endotoxicity on late treatment: appears to prevent lethal endotoxicity
[2]; lipid X intraperitoneally 2 hours before 1500 µg endotoxin
  prolongation of the time to death: four-fold
[2]; lipid X intraperitoneally 2 hours before 1500 µg endotoxin (3 times LD100), control about 20 hours
  time to death: ~80 h
[3]; 750, 1500 or 3000 µg intravenously (7 mice)
  survival after lipid X alone: All these mice lived
[3]; 750, 2000 or 5000 µg intraperitoneally (12 mice)
  survival after lipid X alone: All these mice lived
